Measurements from publication PMC4157643 (Journal of pharmaceutical sciences, 2012).
Values joined by “and” are separate entries in the source; they are usually repeats but may differ in a detail not shown here. Identical values can stand only once. Like-named read-outs stand apart in the source and are kept apart here.

How the values were obtained:
in vivo = conditions: male, New Zealand white, rabbit
[1] = retina to scleral (R-S) direction, isolated rabbit RCS; ref [4]; cited from earlier work
[2] = ref [2],[4], cited from earlier work
[3] = ref Ameer et al., [10]; cited from earlier work
[4] = vitreous humor, two-compartment model, n=4

Q: With `COc1ccc([C@@H]2CC(=O)c3c(O)cc(O)cc3O2)cc1O` [hesperetin, Hesperetin] as the compound, how does the Vd (in vivo) read?
A: The Vd was 0.001 to 0.0015 L.

Q: And the AUC (in vivo; 1.5 ug)?
A: Its AUC is 2980 ng·h/mL.

Q: And the Cmax (in vivo; 1.5 ug)?
A: Its Cmax is 1020 ± 200 ng/mL.

Q: And the clearance (in vivo; 1.5 ug, CL)?
A: The clearance was 0.0093 ± 0.004 mL/min.

Q: And the half-life (in vivo; 1.5 ug, T1/2)?
A: The half-life was 1.83 ± 0.467 h.

Q: And the AUC (in vivo; 4.5 ug)?
A: The AUC was 7920 ng·h/mL.

Q: And the Cmax (in vivo; 4.5 ug)?
A: Its Cmax is 4510 ± 570 ng/mL.

Q: And the clearance (in vivo; 4.5 ug, CL)?
A: The clearance was 0.0096 ± 0.0015 mL/min.

Q: What about the half-life (in vivo; 4.5 ug, T1/2) of the same compound?
A: The half-life was 1.48 ± 0.233 h.

Q: What about the AUC (in vivo; 15 ug) of the same compound?
A: Its AUC is 29100 ng·h/mL.

Q: And the Cmax (in vivo; 15 ug)?
A: Its Cmax is 14700 ± 1990 ng/mL.

Q: And the clearance (in vivo; 15 ug, CL)?
A: The clearance was 0.0086 ± 0.0007 mL/min.

Q: What about the half-life (in vivo; 15 ug, T1/2) of the same compound?
A: The half-life was 1.38 ± 0.167 h.

Q: And the clearance (in vivo; 15 ug, clearance rate (CL))?
A: The clearance was 0.0086 to 0.0096 mL/min.

Q: What about the half-life (in vivo; 15 ug, elimination half-life (T1/2)) of the same compound?
A: The half-life was 1.39 to 1.84 h.

Q: What about the apparent permeability [1] of the same compound?
A: The apparent permeability was 2.52 ± 0.51 × 10^−6 cm/s.

Q: Which results are given for `COc1ccc([C@@H]2CC(=O)c3c(O)cc(O[C@@H]4O[C@H](CO[C@@H]5O[C@@H](C)[C@H](O)[C@@H](O)[C@H]5O)[C@@H](O)[C@H](O)[C@H]4O)cc3O2)cc1O` [hesperidin, Hesperidin]?
A: log P [2]: 1.79 and 1.78; oral bioavailability [3]: < 25%; apparent permeability [1]: 1.51 ± 0.78 × 10^−6 cm/s; AUC ([4]; intravitreal dose 1.5 µg): 651 ± 88 µg·min/mL; Alpha ([4]; intravitreal dose 1.5 µg): 0.0267 ± 0.0077 min⁻¹; Alpha_HL ([4]; intravitreal dose 1.5 µg): 28 ± 7 min; Beta ([4]; intravitreal dose 1.5 µg): 0.0016 ± 0.0004 min⁻¹; Beta_HL ([4]; intravitreal dose 1.5 µg): 386 ± 116 min; CL ([4]; intravitreal dose 1.5 µg): 0.0027 ± 0.0003 mL/min; CLD2 ([4]; intravitreal dose 1.5 µg): 0.0058 ± 0.0010 mL/min; Cmax ([4]; intravitreal dose 1.5 µg): 3260 ± 1350 ng/mL; MRT ([4]; intravitreal dose 1.5 µg): 9.08 ± 1.77 h; V2 ([4]; intravitreal dose 1.5 µg): 0.75 ± 0.62 mL; Vss ([4]; intravitreal dose 1.5 µg): 1.48 ± 0.42 mL; AUC ([4]; intravitreal dose 4.5 µg): 1575 ± 164 µg·min/mL; Alpha ([4]; intravitreal dose 4.5 µg): 0.0249 ± 0.0109 min⁻¹; Alpha_HL ([4]; intravitreal dose 4.5 µg): 31 ± 11 min; Beta ([4]; intravitreal dose 4.5 µg): 0.0017 ± 0.0003 min⁻¹; Beta_HL ([4]; intravitreal dose 4.5 µg): 407 ± 58 min; CL ([4]; intravitreal dose 4.5 µg): 0.0029 ± 0.0003 mL/min; CLD2 ([4]; intravitreal dose 4.5 µg): 0.0054 ± 0.0026 mL/min; Cmax ([4]; intravitreal dose 4.5 µg): 10820 ± 1120 ng/mL; MRT ([4]; intravitreal dose 4.5 µg): 7.47 ± 0.917 h; V2 ([4]; intravitreal dose 4.5 µg): 0.87 ± 0.21 mL; Vss ([4]; intravitreal dose 4.5 µg): 1.29 ± 0.21 mL; AUC ([4]; intravitreal dose 15 µg): 4835 ± 861 µg·min/mL; Alpha ([4]; intravitreal dose 15 µg): 0.0358 ± 0.0084 min⁻¹; Alpha_HL ([4]; intravitreal dose 15 µg): 20 ± 5 min; Beta ([4]; intravitreal dose 15 µg): 0.0014 ± 0.0004 min⁻¹; Beta_HL ([4]; intravitreal dose 15 µg): 466 ± 98 min; CL ([4]; intravitreal dose 15 µg): 0.0032 ± 0.0005 mL/min; CLD2 ([4]; intravitreal dose 15 µg): 0.0130 ± 0.0026 mL/min; Cmax ([4]; intravitreal dose 15 µg): 25230 ± 3020 ng/mL; MRT ([4]; intravitreal dose 15 µg): 11.1 ± 3.07 h; V2 ([4]; intravitreal dose 15 µg): 1.46 ± 0.40 mL; Vss ([4]; intravitreal dose 15 µg): 2.07 ± 0.35 mL

Q: Which results are given for glucosyl hesperidin [hesperidin G]?
A: log P [2]: −3.2; log P ([2]; listed as Hesperidin G): < −3.2; AUC ([4]; intravitreal dose 1.5 µg): 688 ± 47 µg·min/mL; Alpha ([4]; intravitreal dose 1.5 µg): 0.045 ± 0.019 min⁻¹; Alpha_HL ([4]; intravitreal dose 1.5 µg): 17 ± 6 min; Beta ([4]; intravitreal dose 1.5 µg): 0.0014 ± 0.0002 min⁻¹; Beta_HL ([4]; intravitreal dose 1.5 µg): 495 ± 66 min; CL ([4]; intravitreal dose 1.5 µg): 0.0022 ± 0.0002 mL/min; CLD2 ([4]; intravitreal dose 1.5 µg): 0.011 ± 0.002 mL/min; Cmax ([4]; intravitreal dose 1.5 µg): 3790 ± 1060 ng/mL; MRT ([4]; intravitreal dose 1.5 µg): 10.8 ± 1.5 h; Vss ([4]; intravitreal dose 1.5 µg): 1.41 ± 0.14 mL; AUC ([4]; intravitreal dose 4.5 µg): 1811 ± 269 µg·min/mL; Alpha ([4]; intravitreal dose 4.5 µg): 0.028 ± 0.011 min⁻¹; Alpha_HL ([4]; intravitreal dose 4.5 µg): 29 ± 16 min; Beta ([4]; intravitreal dose 4.5 µg): 0.0015 ± 0.0002 min⁻¹; Beta_HL ([4]; intravitreal dose 4.5 µg): 468 ± 82 min; CL ([4]; intravitreal dose 4.5 µg): 0.0025 ± 0.0004 mL/min; CLD2 ([4]; intravitreal dose 4.5 µg): 0.003 ± 0.001 mL/min; Cmax ([4]; intravitreal dose 4.5 µg): 20160 ± 6120 ng/mL; MRT ([4]; intravitreal dose 4.5 µg): 6.97 ± 0.35 h; Vss ([4]; intravitreal dose 4.5 µg): 1.05 ± 0.013 mL; AUC ([4]; intravitreal dose 15 µg): 6167 ± 168 µg·min/mL; Alpha ([4]; intravitreal dose 15 µg): 0.027 ± 0.007 min⁻¹; Alpha_HL ([4]; intravitreal dose 15 µg): 27 ± 8 min; Beta ([4]; intravitreal dose 15 µg): 0.0017 ± 0.0003 min⁻¹; Beta_HL ([4]; intravitreal dose 15 µg): 414 ± 70 min; CL ([4]; intravitreal dose 15 µg): 0.0024 ± 0.0002 mL/min; CLD2 ([4]; intravitreal dose 15 µg): 0.007 ± 0.001 mL/min; Cmax ([4]; intravitreal dose 15 µg): 32050 ± 4390 ng/mL; MRT ([4]; intravitreal dose 15 µg): 8.62 ± 1.33 h; Vss ([4]; intravitreal dose 15 µg): 1.25 ± 0.16 mL
